Test results reported in patent US8022225B2, “Triazole derivative” (Taisho Pharmaceutical Co., Ltd, priority 2004, dated 2011).

Columns and labels:
human Edg-1(S1P1) [1] = molecular target: T1, human Edg-1(S1P1) (Homo sapiens, UniProt P21453); assay: Cell system binding test: inhibition of [3H]-S1P binding to Edg-1(S1P1) gene transferred HEK-293 cells; details: 10 μM compound, [3H]-S1P 10 nM, read-out: Cell system binding test % inhibition (10 μM)
T1 construct: expressed in transfected cells; host or cells: HEK-293
Procedure: Cells (1×10^5 cells/well) obtained as described above were seeded in poly-L-lysine-coated 96-well plates (Corning Incorporated), and then incubated in a 5% carbon dioxide gas incubator for 12 hours at 37° C. with the use of an MEM medium (Invitrogen Corporation) containing 100 U/mL of penicillin, 100 μg/mL of streptomycin, a 1% MEM nonessential amino acid solution, and 10% FCS. […] After the cells were washed twice with the buffer, they were solubilized with 100 μL of Opti Phase Supermix (produced by Perkin-Elmer), and measured for radioactivity by means of Micro Beta (produced by Perkin-Elmer).
Inhibition rate(%)=[1−(A−C)/(B−C)]×100

human Edg-1(S1P1) [2] = molecular target: T1, human Edg-1(S1P1); assay: Membrane system binding test: inhibition of [33P]-S1P binding to the membrane fraction of Edg-1(S1P1) gene transferred HEK-293 cells; details: 10 μM compound; [33P]-S1P 0.1 nM; membrane fraction of Edg-1(S1P1) gene transferred HEK-293 cells; read-out: Membrane system binding test % inhibition (10 μM)
Procedure: The membrane fraction was obtained by treating the cells with a solubilizing buffer (1 mM Tris/HCl, pH 7.2) for 10 minutes on ice, centrifuging the system (1000×g, 5 min) to remove insoluble fractions, and then centrifuging the system (40000×g, 30 min, 4° C.). The resulting membrane fraction was dissolved in a binding buffer (20 mM Tris-HCl, pH 7.4, 100 mM NaCl, 15 mM NaF, 2 mM deoxypyridoxine, 4 mg/mL fatty acid-free BSA), and then [^33P]-S1P (produced by ARC, end concentration 0.1 nM) and a DMSO solution of the test compound (end concentration of the compound: 10^−5 M, end concentration of DMSO: 0.1%) were added, followed by stirring the mixture and subsequently treating it for 1 hour at 30° C. Using a harvester, the membrane fraction was harvested onto unifilter-96GF/C filter (produced by Perkin-Elmer). Then, the filter with the membrane fraction was washed 4 times with the binding buffer, and the filter was dried. To the filter, 25 μL Microscint 0 (produced by Perkin-Elmer) was added, and the assay system was measured for radioactivity by means of Top Count NXT (Packard). Based on the radioactivity, the amount (A) of binding of [^33P]-S1P to the membrane fraction upon addition of the compound was calculated.
The same procedure was performed in the absence of the test compound, and the amount (B) of binding of [^33P]-S1P was calculated. Moreover, the same procedure was performed in the absence of the test compound with the use of HEK-293 cells, to which the Edg-1(S1P1) gene had not been transferred, and the background amount (C) of binding of [^33P]-S1P was calculated.
The Edg-1(S1P1) binding inhibition rate of the compound, calculated from the following equation, is shown in […]

T1 sequence (P21453 whole entry): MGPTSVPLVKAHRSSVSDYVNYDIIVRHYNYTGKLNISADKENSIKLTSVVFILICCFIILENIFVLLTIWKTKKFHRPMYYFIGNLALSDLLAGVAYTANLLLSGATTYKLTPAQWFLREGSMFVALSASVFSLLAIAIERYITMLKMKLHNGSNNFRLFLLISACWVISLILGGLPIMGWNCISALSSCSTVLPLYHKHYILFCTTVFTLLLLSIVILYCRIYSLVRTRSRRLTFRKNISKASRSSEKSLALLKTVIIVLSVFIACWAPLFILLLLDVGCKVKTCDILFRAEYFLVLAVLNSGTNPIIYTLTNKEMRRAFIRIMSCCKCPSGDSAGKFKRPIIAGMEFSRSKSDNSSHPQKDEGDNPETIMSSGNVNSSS

| Compound | inhibition at 10 µM (human Edg-1(S1P1) [1]) | inhibition at 10 µM (human Edg-1(S1P1) [2]) |
| --- | --- | --- |
| CCn1c(SCCOc2ccccc2)nnc1[C@@H](C)NS(=O)(=O)c1ccc(Cl)cc1 [Compound 23] | 84.4% | 95% |
| CCn1c(SCC(=O)OC)nnc1[C@@H](C)NS(=O)(=O)c1ccc(Cl)cc1 [Compound 24] | 82.6% | 60.6% |
| CCn1c(SCCSC)nnc1[C@@H](C)NS(=O)(=O)c1ccc(Cl)cc1 [Compound 26] | 84% | 61.1% |
| CCCCSc1nnc([C@@H](C)NS(=O)(=O)c2ccc(Cl)cc2)n1CC [Compound 29] | 93% | 95.9% |
| CCn1c(SCC2CCO2)nnc1[C@@H](C)NS(=O)(=O)c1ccc(Cl)cc1 (stereo partly drawn) [Compound 31] | 90.2% | 90% |
| CCn1c(SCc2ccccc2C)nnc1[C@@H](C)NS(=O)(=O)c1ccc(Cl)cc1 [Compound 32] | 89.1% | 99.1% |
| CCn1c(SCc2cccc(Cl)c2)nnc1[C@@H](C)NS(=O)(=O)c1ccc(Cl)cc1 [Compound 44] | 93% | 99.6% |
| CCn1c(SCc2ccc(Cl)cc2)nnc1[C@@H](C)NS(=O)(=O)c1ccc(Cl)cc1 [Compound 45] | 91.7% | 91.3% |
| CCn1c(SCc2ccc(C(F)(F)F)cc2)nnc1C(C)NS(=O)(=O)c1ccc(Cl)cc1 (stereo not drawn) [Compound 46] | 90.4% | 99.5% |
| CCn1c(SCc2cccc3ccccc23)nnc1[C@@H](C)NS(=O)(=O)c1ccc(Cl)cc1 [Compound 48] | 93% | 101% |
| CCn1c(SC2CCOC2)nnc1[C@@H](C)NS(=O)(=O)c1ccc(Cl)cc1 (stereo partly drawn) [Compound 49] | 94.8% | 93.9% |
| CCn1c(SC(C(=O)OC)c2ccccc2)nnc1[C@@H](C)NS(=O)(=O)c1ccc(Cl)cc1 (stereo partly drawn) [Compound 52] | 93.6% | 89.1% |
| CCSc1nnc([C@@H](C)NS(=O)(=O)c2ccc(Cl)cc2)n1CC [Compound 53] | 90.8% | 89.3% |
| CCn1c(SC(C)C)nnc1[C@@H](C)NS(=O)(=O)c1ccc(Cl)cc1 [Compound 54] | 88.7% | 105% |
| CCn1c(SCc2ccc(C#N)cc2)nnc1[C@@H](C)NS(=O)(=O)c1ccc(Cl)cc1 [Compound 56] | 87.1% | 91% |
| CCn1c(SCc2ccc(C(=O)OC)cc2)nnc1[C@@H](C)NS(=O)(=O)c1ccc(Cl)cc1 [Compound 58] | 91.9% | 98.1% |
| CCn1c(SCc2ccc(C)cc2)nnc1[C@@H](C)NS(=O)(=O)c1ccc(Cl)cc1 [Compound 59] | 93.2% | 96.9% |
| CCn1c(SCC2CCCN(C)C2)nnc1[C@@H](C)NS(=O)(=O)c1ccc(Cl)cc1 (stereo partly drawn) [Compound 65] | 83.3% | 83.1% |
| CCn1c(SCCCCCCN(C)C)nnc1[C@@H](C)NS(=O)(=O)c1ccc(Cl)cc1 [Compound 66] | 84% | 90.6% |
| CCn1c(SCCCN(C)C)nnc1[C@@H](C)NS(=O)(=O)c1ccc(Cl)cc1 [Compound 67] | 73.8% | 42.2% |

Further lines, results first:

| inhibition at 10 µM (human Edg-1(S1P1) [1]) | inhibition at 10 µM (human Edg-1(S1P1) [2]) | Compound |
| --- | --- | --- |
| 81.5% | 77.8% | CCn1c(SCC2CCCCC2)nnc1[C@@H](C)NS(=O)(=O)c1ccc(Cl)cc1 [Compound 25] |
| 86.9% | 76% | CC#CCSc1nnc([C@@H](C)NS(=O)(=O)c2ccc(Cl)cc2)n1CC [Compound 27] |
| 93.1% | 82.8% | CCn1c(SCC=C(C)C)nnc1[C@@H](C)NS(=O)(=O)c1ccc(Cl)cc1 [Compound 28] |
| 91.9% | 100% | CCCCCCCCSc1nnc([C@@H](C)NS(=O)(=O)c2ccc(Cl)cc2)n1CC [Compound 30] |
| 91.7% | 90% | CCn1c(SCC(C)C)nnc1[C@@H](C)NS(=O)(=O)c1ccc(Cl)cc1 [Compound 33] |
| 91.5% | 76.4% | CCn1c(SCC2CCC2)nnc1[C@@H](C)NS(=O)(=O)c1ccc(Cl)cc1 [Compound 34] |
| 91.9% | 87.7% | CCn1c(SCC2CCCCCCC2)nnc1[C@@H](C)NS(=O)(=O)c1ccc(Cl)cc1 [Compound 35] |
| 89.5% | 104% | CCn1c(SC2CCc3ccccc3C2)nnc1[C@@H](C)NS(=O)(=O)c1ccc(Cl)cc1 (stereo partly drawn) [Compound 36] |
| 92.7% | 92.8% | CCn1c(SCCOCc2ccccc2)nnc1[C@@H](C)NS(=O)(=O)c1ccc(Cl)cc1 [Compound 37] |
| 91.5% | 81% | CCn1c(SC/C=C/c2ccccc2)nnc1[C@@H](C)NS(=O)(=O)c1ccc(Cl)cc1 [Compound 38] |
| 93.8% | 86.7% | CCn1c(SCCCc2ccccc2)nnc1[C@@H](C)NS(=O)(=O)c1ccc(Cl)cc1 [Compound 39] |
| 87% | 46.1% | CCn1c(SC(c2ccccc2)c2ccccc2)nnc1[C@@H](C)NS(=O)(=O)c1ccc(Cl)cc1 [Compound 40] |
| 87.3% | 97.3% | CCn1c(SC(C)c2ccccc2)nnc1[C@@H](C)NS(=O)(=O)c1ccc(Cl)cc1 (stereo partly drawn) [Compound 41] |
| 85.4% | 98.8% | CCn1c(SCc2ccccc2Cl)nnc1[C@@H](C)NS(=O)(=O)c1ccc(Cl)cc1 [Compound 42] |
| 90.5% | 102% | CCn1c(SCc2c(Cl)cccc2Cl)nnc1[C@@H](C)NS(=O)(=O)c1ccc(Cl)cc1 [Compound 43] |
| 92.5% | 99.2% | CCn1c(SCC(=O)c2ccccc2)nnc1[C@@H](C)NS(=O)(=O)c1ccc(Cl)cc1 [Compound 47] |
| 95.3% | 96.2% | CCn1c(SC/C=C\COCc2ccccc2)nnc1[C@@H](C)NS(=O)(=O)c1ccc(Cl)cc1 [Compound 50] |
| 91.2% | 93% | CCn1c(SC2CCc3ccccc32)nnc1[C@@H](C)NS(=O)(=O)c1ccc(Cl)cc1 (stereo partly drawn) [Compound 51] |
| 94.3% | 104% | CCn1c(SC2CCC2)nnc1[C@@H](C)NS(=O)(=O)c1ccc(Cl)cc1 [Compound 55] |
| 92.6% | 100% | CCn1c(SCC(F)F)nnc1[C@@H](C)NS(=O)(=O)c1ccc(Cl)cc1 [Compound 57] |
| 90.3% | 97.2% | CCn1c(SCc2ccc(SC)cc2)nnc1[C@@H](C)NS(=O)(=O)c1ccc(Cl)cc1 [Compound 60] |
| 95% | 98.9% | CCn1c(SCCc2ccccc2)nnc1[C@@H](C)NS(=O)(=O)c1ccc(Cl)cc1 [Compound 61] |
| 92.9% | 90.6% | CCn1c(SCCc2ccccn2)nnc1[C@@H](C)NS(=O)(=O)c1ccc(Cl)cc1 [Compound 62] |
| 93.7% | 99.7% | CCn1c(SCc2ccccn2)nnc1[C@@H](C)NS(=O)(=O)c1ccc(Cl)cc1 [Compound 63] |
| 91.3% | 86.5% | CCn1c(SCc2ccncc2)nnc1[C@@H](C)NS(=O)(=O)c1ccc(Cl)cc1 [Compound 64] |
